The structures appear in SMILES notation. Structures can show the parent of a compound that is named as a salt.

We go through 70 compounds from publication PMC6792352, “Limited Chemical Structural Diversity Found to Modulate Thyroid Hormone Receptor in the Tox21 Chemical Library” (Environmental Health Perspectives, 2019).

This data set can be described thus: in vitro. Particulars: rat, gh3-tre-luc cells.

Broadly, the CC50 is the concentration giving 50% cytotoxicity. A lower CC50 goes with greater toxicity to the cells. For the compound `CO[C@H]1[C@@H](O)C[C@H](O[C@H]2[C@@H](O)C[C@H](O[C@H]3[C@@H](O)C[C@H](O[C@H]4CC[C@@]5(C)[C@H](CC[C@@H]6[C@@H]5C[C@@H](O)[C@]5(C)[C@@H](C7=CC(=O)OC7)CC[C@]65O)C4)O[C@@H]3C)O[C@@H]2C)O[C@@H]1C` [Methyldigoxin], the CC50 at 24 h (AC50 (uM) modified / 1000) was greater than 50 µM. For `CCCCCCCCCCCCCCCC(=O)OC` [Methyl hexadecanoate], for the setting “AC50 (uM) modified / 1000”, the CC50 at 24 h was greater than 30 µM. The same measure, in the same setting: the same measure for `O=S(=O)(O)CCO` [Sodium 2-hydroxyethanesulfonate]: greater than 90 µM.

On to `C/C(=N\NC(=O)Nc1cc(F)cc(F)c1)c1ncccc1C(=O)O` [Diflufenzopyr-sodium], for which the cytotoxic concentration (CC50) at 24 h (AC50 (uM) modified / 1000, Tox21_110001=Tox21_300997, viability, 1 nM T3 present, 24 h) was greater than 90 µM. Under “AC50 (uM) modified / 1000”, `O=C(O)c1ccc(NC2OC[C@@H](O)[C@H](O)[C@H]2O)cc1` (stereo partly drawn) [Benaxibine] registered a 50% cytotoxic concentration (CC50) at 24 h greater than 50 µM. `C=C(C)C(=O)OCc1ccccc1` [Benzyl methacrylate] yielded a CC50 at 24 h (AC50 (uM) modified / 1000) greater than 90 µM. For `CCCCCC` [n-Hexane], the CC50 at 24 h (AC50 (uM) modified / 1000) is greater than 90 µM. The compound `CCOc1cc(OCC)c(C(C)=O)cc1OCC` [2,4,5-Triethoxyacetophenone] returned a CC50 at 24 h (AC50 (uM) modified / 1000) of 35.3 µM. Turning to `CC(=O)c1ccccc1` [Acetophenone], the 50% cytotoxic concentration (CC50) at 24 h (AC50 (uM) modified / 1000) is greater than 90 µM. Same read-out and setting: the same measure for `CCCCCCC(C)OC(=O)COc1nc(F)c(Cl)c(N)c1Cl` (stereo not drawn) [Fluroxypyr-meptyl]: 51.1 µM; for `CCCCNC(=N)NC(=N)N` [Buformin]: greater than 50 µM; for `COCCOC(=O)C1=C(C)NC(C)=C(C(=O)OC(C)C)C1c1cccc([N+](=O)[O-])c1` (stereo not drawn) [Nimodipine]: greater than 50 µM. The same measure, in the same setting: the same measure for `CN(C)CC/C=C1/c2ccccc2COc2ccc(CC(=O)O)cc21` [Olopatadine hydrochloride]: greater than 50 µM; for `Oc1nc(Cl)c(Cl)cc1Cl` [3,5,6-Trichloro-2-pyridinol]: greater than 90 µM; for `CC1=C(C(=O)OC(C)C)C(c2cccc([N+](=O)[O-])c2)C(C(=O)OC2CN(C(c3ccccc3)c3ccccc3)C2)=C(N)N1` (stereo not drawn) [Azelnidipine]: 4.41 µM. The same measure, in the same setting: to `C=C(C)C(=O)OCCCCCCCCCCOC(=O)C(=C)C` [1,10-Decanediol dimethacrylate] belongs greater than 90 µM; to `CC(C)COC(=O)c1ccccc1C(=O)OCC(C)C` [Diisobutyl phthalate], greater than 90 µM. In the case of `CC#Cc1cc(C)nc(Nc2ccccc2)n1` [Mepanipyrim], under “AC50 (uM) modified / 1000”, the CC50 at 24 h was greater than 90 µM.

`CCSc1ccc2c(c1)N(CCCN1CCN(C)CC1)c1ccccc1S2` [Thiethylperazine malate] gave a CC50 at 24 h (AC50 (uM) modified / 1000) greater than 20 µM.

The compound `O=C(Nc1ccccc1)Nc1cnns1` [Thidiazuron] showed a CC50 at 24 h (AC50 (uM) modified / 1000, Tox21_110001=Tox21_300651, viability, 1 nM T3 present, 24 h) greater than 90 µM. Where the note is “AC50 (uM) modified / 1000”, `CCOC(=O)c1c(N)sc2c1CCN(Cc1ccccc1)C2` [Tinoridine] returned a CC50 at 24 h greater than 50 µM. Where the note is “AC50 (uM) modified / 1000”, `C=CC[C@@H]1/C=C(\C)C[C@H](C)C[C@H](OC)[C@H]2O[C@@](O)(C(=O)C(=O)N3CCCC[C@H]3C(=O)O[C@H](/C(C)=C/[C@@H]3CC[C@@H](O)[C@H](OC)C3)[C@H](C)[C@@H](O)CC1=O)[C@H](C)C[C@@H]2OC` [Tacrolimus] showed a cytotoxic concentration (CC50) at 24 h greater than 50 µM. Where the note is “AC50 (uM) modified / 1000”, `NC(=O)CN1CC(O)CC1=O` (stereo not drawn) [Oxiracetam] registered a 50% cytotoxic concentration (CC50) at 24 h greater than 50 µM. On the same count and under the same terms, to `CCN(CC)C(C)C(=O)c1ccccc1` (stereo not drawn) [Diethylpropion hydrochloride] belongs greater than 50 µM; to `C=Cc1ccc(S(=O)(=O)O)cc1` [Sodium 4-vinylbenzenesulfonate], 31.8 µM. As for `COP(=S)(OC)Oc1ccc([N+](=O)[O-])cc1Cl` [Dicapthon], for the setting “AC50 (uM) modified / 1000, Tox21_110001=Tox21_301908, viability, 1 nM T3 present, 24 h”, the CC50 at 24 h is greater than 90 µM. The compound `C/C(=C(\CCOP(=O)(O)O)SC(=O)c1ccccc1)N(C=O)Cc1cnc(C)nc1N` [Benfotiamine] came in with a CC50 at 24 h (AC50 (uM) modified / 1000) greater than 20 µM. Still for that read-out and setting: the same measure for `C=CC(C)(O)CCC=C(C)C` (stereo not drawn) [Linalool]: greater than 90 µM; for `Cc1oc(C)c(C(=O)Nc2ccccc2)c1C` [Methfuroxam]: greater than 90 µM; for `Clc1ccc([C@@H]2C[C@H]3CC[C@@H]2N3)cn1` [(+)-Epibatidine hydrochloride]: greater than 90 µM. Take `CCN(CC)CCC(=O)N1c2ccccc2Sc2ccc(Cl)cc21` [Chloracizine]: the CC50 at 24 h (AC50 (uM) modified / 1000) stood at 23.2 µM. Same read-out and setting: to `CCNC(=O)[C@@H]1CCCN1C(=O)[C@H](CCCN=C(N)N)NC(=O)[C@H](CC(C)C)NC(=O)[C@@H](Cc1c[nH]c2ccccc12)NC(=O)[C@H](Cc1ccc(O)cc1)NC(=O)[C@H](CO)NC(=O)[C@H](Cc1c[nH]c2ccccc12)NC(=O)[C@H](Cc1cnc[nH]1)NC(=O)[C@@H]1CCC(=O)N1` [Deslorelin acetate] belongs 1.89 µM. `CCCCCCI` [1-Iodohexane]: for the setting “AC50 (uM) modified / 1000, Tox21_110001=Tox21_202862, viability, 1 nM T3 present, 24 h”, the CC50 at 24 h is greater than 90 µM. For the setting “AC50 (uM) modified / 1000”, `CCCCCC(C)=O` [2-Heptanone] had a cytotoxic concentration (CC50) at 24 h greater than 90 µM. Compound `Brc1ccc(Br)cc1` [1,4-Dibromobenzene] had a CC50 at 24 h (AC50 (uM) modified / 1000, Tox21_110001=Tox21_201288, viability, 1 nM T3 present, 24 h) greater than 90 µM.

Compound `OCC(CO)(CO)COCC(CO)(CO)CO` [Dipentaerythritol] showed a 50% cytotoxic concentration (CC50) at 24 h (AC50 (uM) modified / 1000) greater than 90 µM. Same read-out and setting: to `COc1ccc(C[C@H](C)NC[C@@H](O)c2ccc(O)c(NC=O)c2)cc1` [Formoterol hemifumarate dihydrate] belongs greater than 50 µM; to `CC(NNC(=O)c1ccccc1)c1ccccc1` (stereo not drawn) [Benmoxin], greater than 50 µM.

For the setting “AC50 (uM) modified / 1000”, `Cc1cccc(C)c1Nc1ncccc1C(=O)O` [Metanixin] yielded a cytotoxic concentration (CC50) at 24 h greater than 50 µM.

Regarding `Cc1ccc(C)cc1` [p-Xylene], the half-maximal cytotoxic concentration (CC50) at 24 h (AC50 (uM) modified / 1000) is greater than 90 µM. `CC(CN(C)C)CN1c2ccccc2Sc2ccc(C(F)(F)F)cc21` (stereo not drawn) [Trifluomeprazine 2-butenedioate] showed a CC50 at 24 h (AC50 (uM) modified / 1000) of 9.4 µM. Where the note is “AC50 (uM) modified / 1000, Tox21_110001=Tox21_200642, viability, 1 nM T3 present, 24 h”, `CC(C)N(C(=O)SC/C(Cl)=C/Cl)C(C)C` [Diallate] gave a half-maximal cytotoxic concentration (CC50) at 24 h of 92.9 µM. In the case of `COc1ccc(C(=O)c2ccccc2)c(O)c1` [2-Hydroxy-4-methoxybenzophenone], the CC50 at 24 h (AC50 (uM) modified / 1000) is greater than 50 µM. Regarding `CN(C)N=Nc1ccccc1` [1-Phenyl-3,3-dimethyltriazene], the cytotoxic concentration (CC50) at 24 h (AC50 (uM) modified / 1000) is greater than 90 µM. The same measure, in the same setting: to `N=C(N)NN` [Aminoguanidine hydrochloride] belongs greater than 90 µM.

As for `c1csc(C2(N3CCCCC3)CCCCC2)c1` [Tenocyclidine], the CC50 at 24 h (AC50 (uM) modified / 1000, Tox21_110001=Tox21_111833, viability, 1 nM T3 present, 24 h) was greater than 50 µM. The compound `ClCC(Br)CBr` (stereo not drawn) [1,2-Dibromo-3-chloropropane] had a CC50 at 24 h (AC50 (uM) modified / 1000, Tox21_110001=Tox21_200382, viability, 1 nM T3 present, 24 h) greater than 90 µM. Compound `Nc1cccc(S(=O)(=O)O)c1` [3-Aminobenzenesulfonic acid] showed a 50% cytotoxic concentration (CC50) at 24 h (AC50 (uM) modified / 1000) greater than 90 µM.

For the compound `CCCCCCCOC(=O)CCC` [Heptyl butanoate], the CC50 at 24 h (AC50 (uM) modified / 1000) was greater than 90 µM.

In the case of `CCCCc1c(C)nc(NCC)nc1OS(=O)(=O)N(C)C` [Bupirimate], the 50% cytotoxic concentration (CC50) at 24 h (AC50 (uM) modified / 1000) is greater than 90 µM.

`CC(=O)NC(Cc1ccccc1)C(=O)O` (stereo not drawn) [Afalanine]: the CC50 at 24 h (AC50 (uM) modified / 1000) was greater than 50 µM. For the compound `O=C1Nc2ccccc2C1=O` [Isatin], the CC50 at 24 h (AC50 (uM) modified / 1000) was greater than 90 µM. On to `C=C(C)C(=O)NCCCN(C)C` [N-[3-(Dimethylamino)propyl]methacrylamide], for which, under “AC50 (uM) modified / 1000”, the CC50 at 24 h was greater than 90 µM. With `CNC(=O)c1ccccc1Sc1ccc2c(/C=C/c3ccccn3)n[nH]c2c1` [Axitinib], for the setting “AC50 (uM) modified / 1000”, the 50% cytotoxic concentration (CC50) at 24 h was greater than 50 µM. The same measure, in the same setting: the same measure for `COc1ccc2c(c1)N(C[C@H](C)CN(C)C)c1ccccc1S2` [Methotrimeprazine maleate]: 6.79 µM; for `CC(C)CCCCCOC(=O)c1ccccc1C(=O)OCCCCCC(C)C` [Diisooctyl phthalate]: greater than 90 µM. The same measure, in the same setting: the same measure for `COc1ccc(C)cc1[N+](=O)[O-]` [1-Methoxy-4-methyl-2-nitrobenzene]: greater than 90 µM; for `OC[C@@H](O)C(O)[C@@H](O)CO` (stereo partly drawn) [Xylitol]: greater than 90 µM. On the same count and under the same terms, to `O=Cc1cc2ccccc2o1` [2-Benzofurancarboxaldehyde] belongs greater than 90 µM. In the case of `CC(C)NC(C)C` [Diisopropylamine], the CC50 at 24 h was greater than 50 µM (AC50 (uM) modified / 1000, Tox21_110001=Tox21_111075, viability, 1 nM T3 present, 24 h) and greater than 90 µM (AC50 (uM) modified / 1000, Tox21_110001=Tox21_200216, viability, 1 nM T3 present, 24 h). In turn, `CCCc1cc(C(N)=S)ccn1` [Prothionamide] came in with a CC50 at 24 h (AC50 (uM) modified / 1000) greater than 50 µM. Same read-out and setting: the same measure for `CNC(=O)Oc1ccccc1OC(C)C` [Propoxur]: greater than 90 µM; for `N[C@H](Cc1c[nH]c2ccccc12)C(=O)O` [d-Tryptophan]: greater than 90 µM; for `CC(C)CCCC(=O)O` [5-Methylhexanoic acid]: greater than 90 µM. On the same count and under the same terms, the same measure for `CCCCNCC` [N-Ethyl-N-butylamine]: greater than 90 µM.

Take `C[C@@H](Cc1ccccc1)N(C)C` [Dimetamfetamine]: under “AC50 (uM) modified / 1000, Tox21_110001=Tox21_111807, viability, 1 nM T3 present, 24 h”, the CC50 at 24 h was greater than 50 µM. `Nc1cnn([C@@H]2O[C@H](CO)[C@@H](O)[C@H]2O)c(=O)n1` [6-Azacytidine] returned a CC50 at 24 h (AC50 (uM) modified / 1000) greater than 90 µM. On the same count and under the same terms, to `CCN(CC)CCOc1ccc2nc(N(C)C)sc2c1` [Diamthazole] belongs greater than 50 µM. Regarding `CN1CSC(=S)N(C)C1` [Dazomet], the CC50 at 24 h by setting is: (AC50 (uM) modified / 1000, Tox21_110001=Tox21_201236, viability, 1 nM T3 present, 24 h) 5.54 µM; (AC50 (uM) modified / 1000, Tox21_110001=Tox21_300990, viability, 1 nM T3 present, 24 h) 34.4 µM.

For the setting “AC50 (uM) modified / 1000”, `Cc1nc2ccccc2s1` [2-Methylbenzothiazole] registered a half-maximal cytotoxic concentration (CC50) at 24 h greater than 90 µM.
